Results published in patent US20250017931A1, “METHODS OF PERSONALIZING CANCER TREATMENT” (PROCESSA PHARMACEUTICALS, INC.,, priority 2023, published 2025).
Like-named read-outs stand apart in the source and are kept apart here.

What was measured:
[1] = human, in vivo
Description: 40 mg of PCS6422 is administered to the subjects on day 1. Subsequently, 75 mg of capecitabine is administered to the subjects daily (Cohort 1) or twice daily (Cohort 2A, morning and night) on days 2-8 followed by 6 days of a drug-free period (days 9-14).
Blood samples for pharmacokinetic (PK) analysis of PCS6422 and its major metabolite, 5-acetyluracil, are drawn in cycle 1 on day 1 at 0 (pre-dose), 1, 2, 3, 5, 7, 9, and 24 hours post PCS6422 administration. On the first day of capecitabine treatment (Cycle 1, day 2), blood samples for PK analysis of capecitabine, 5-fluorouracil (5-FU), and the quantifiable main metabolites, α-fluoro-β-alanine (FBAL), 5′-deoxy-5-fluorocytidine (5′-DFCR), and doxifluridine (5′-DFUR) are obtained at the following time points relative to administration of the first dose of capecitabine (dose 1): 0 (pre-dose/trough), 0.5, 1, 2, 3, 5, 7, and at 9 hours. In cycle 1 on Day 8, blood samples are obtained at the following time points relative to administration of the dose of capecitabine (dose 7 of cycle 1): 0 (pre-dose/trough), 0.5, 1, 2, 3, 5, 7, 9, 24, 30, and 48 hours post-capecitabine dose. A capecitabine blood sample is also drawn on cycle 2, day 1, prior to the dose of PCS6422.
Blood samples are also drawn for the analysis of DPD activity using uracil and dihydrouracil concentrations at screening and at the following times during Cycle 1: Day 1, Day 2, Day 8, Day 9, and Day 10. A blood sample is also drawn on Cycle 2, day 1 prior to the dose of PCS6422. All blood samples for analysis of uracil and dihydrouracil concentrations are taken prior a subject's meal, if possible. Actual sample time is recorded. Validated analytical methods are used to determine the concentrations of PCS6422, 5-acetyluracil, capecitabine, 5-FU, FBAL, 5′-DFCR, and 5′-DFUR, uracil, and/or dihydrouracil in plasma.

[2] = human, in vivo; remark: listed apart in the source
Description: 40 mg of PCS6422 was administered to the subjects on both of day 1 and day 5 (Cohort 2B) or on only day 1 (Cohort 2D). Subsequently, 75 mg of capecitabine was administered to the subjects twice daily (morning and night) on days 2-8 followed by 6 days of a drug-free period (days 9-14).
Blood samples for PK analysis of PCS6422 and its major metabolite, 5-acetyluracil in Cycle 1 on Day 1 was drawn at 0 (pre-dose), 1, 2, 3, 5, 7, 9 and 24 hours. The 24-hour post dose sample was collected prior to capecitabine administration on Day 2.
On the first day of capecitabine treatment (Cycle 1, Day 2), blood samples for PK analysis of capecitabine, 5-fluorouracil (5-FU), and the quantifiable main metabolites, α-fluoro-β-alanine (FBAL), 5′-deoxy-5-fluorocytidine (5′-DFCR), and doxifluridine (5′-DFUR) were obtained at the following time points relative to administration of the first dose of capecitabine […]: 0 (pre-dose), 0.5, 1, 2, 3, 5, 7, and 9 hours. In Cycle 1 on Day 8, blood samples were obtained at the following time points relative to administration of the morning dose of capecitabine at time 0 (pre-dose/trough), 0.5, 1, 2, 3, 5, 7, and 9 hours.
Additional PK blood samples for capecitabine and its main metabolites were obtained prior to administration of the morning dose of capecitabine on Days 3, 4, 5, 6, 7, 9. Validated analytical methods were used to determine the concentrations of PCS6422, 5-aceyluracil, capecitabine, 5-FU, FBAL, 5′-DFCR, and 5′-DFUR in plasma.

[3] = laboratory animals; cited from earlier work
[4] = target: T1, dihydropyrimidine dehydrogenase (DPD) (Homo sapiens, UniProt Q12882); conditions: background statement; cited from earlier work
T1 sequence (Q12882 4-1025): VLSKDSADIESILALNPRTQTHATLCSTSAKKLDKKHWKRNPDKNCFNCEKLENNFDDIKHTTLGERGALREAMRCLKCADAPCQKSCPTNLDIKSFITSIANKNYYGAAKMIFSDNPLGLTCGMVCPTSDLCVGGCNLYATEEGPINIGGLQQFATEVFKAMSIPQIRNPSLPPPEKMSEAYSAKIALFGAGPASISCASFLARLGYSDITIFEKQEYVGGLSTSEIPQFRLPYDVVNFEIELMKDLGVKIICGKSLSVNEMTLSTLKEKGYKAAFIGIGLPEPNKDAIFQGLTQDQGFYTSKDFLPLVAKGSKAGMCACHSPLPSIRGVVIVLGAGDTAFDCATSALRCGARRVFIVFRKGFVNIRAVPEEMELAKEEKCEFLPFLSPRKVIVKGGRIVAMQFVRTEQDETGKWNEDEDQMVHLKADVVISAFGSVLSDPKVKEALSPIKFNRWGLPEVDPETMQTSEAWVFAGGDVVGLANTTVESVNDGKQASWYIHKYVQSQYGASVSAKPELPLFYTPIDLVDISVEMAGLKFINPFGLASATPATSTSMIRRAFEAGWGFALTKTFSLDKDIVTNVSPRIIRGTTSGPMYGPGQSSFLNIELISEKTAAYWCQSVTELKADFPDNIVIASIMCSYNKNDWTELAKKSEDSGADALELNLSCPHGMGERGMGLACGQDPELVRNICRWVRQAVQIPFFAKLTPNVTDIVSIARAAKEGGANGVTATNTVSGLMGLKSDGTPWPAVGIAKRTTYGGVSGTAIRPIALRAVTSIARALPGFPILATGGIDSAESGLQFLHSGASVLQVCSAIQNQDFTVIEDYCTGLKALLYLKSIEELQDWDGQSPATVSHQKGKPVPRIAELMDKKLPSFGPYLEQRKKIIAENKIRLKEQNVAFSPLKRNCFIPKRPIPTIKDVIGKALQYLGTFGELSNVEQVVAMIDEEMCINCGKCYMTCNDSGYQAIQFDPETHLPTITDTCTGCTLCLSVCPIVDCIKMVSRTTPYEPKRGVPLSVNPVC

[5] = target: T1, dihydropyrimidine dehydrogenase (DPD); conditions: cited from earlier work

NCC(F)C(=O)O (stereo not drawn) [FBAL, α-fluoro-β-alanine]
FBAL Cp high on Day 2 (0-9 hours post capecitabine dose) [1]: 15 to 26 ng/mL | FBAL Cp low on Day 2 (0-9 hours post capecitabine dose) [1]: 15 to 22.6 ng/mL | FBAL Cp high on Day 2 (0-9 hours post capecitabine dose) [2]: 15 to 33.1 ng/mL | effect on anti-tumor activity of 5-FU [3]: decrease the anti-tumor activity of 5-FU

C#Cc1c[nH]c(=O)[nH]c1=O [PCS6422, 5-ethynyl-1H-pyrimidine-2,4-dione]
inactivation of DPD [4]: potent and irreversible inactivator

O=c1[nH]cc(F)c(=O)[nH]1 [5-FU, 5-fluorouracil]
5FU D 8 0-9 hrs Cp Low [1]: <2 ng/mL | 5FU D 8 Cmin [1]: <2 ng/mL | 5FU D 9 [1]: <2 ng/mL | highest 5-FU plasma concentration (Cp high) during 0-9 hours following capecitabine dosing [1]: 309 to 466 ng/mL | lowest 5-FU plasma concentration (Cp low) during 0-9 hours following capecitabine dosing [1]: 8.1 to 164 ng/mL | fraction of administered 5-FU catabolized by DPD ([5]; background statement): over 80% | 5-FU elimination half-life ([5]; with DPD inhibited by PCS6422): several hours | 5-FU elimination half-life ([5]; without PCS6422): 10 to 20 min | highest 5-FU plasma concentration (Cp high) during 0-9 hours following capecitabine dosing [2]: 197 to 746 ng/mL | lowest 5-FU plasma concentration (Cp low) during 0-9 hours following capecitabine dosing [2]: 6.4 to 283 ng/mL | 5FU D 9 ([2]; 168 h): <2 ng/mL
